Laboratory results published in patent US20210207188A1, “BETA-LACTAM COMPOUNDS AND METHODS OF USE THEREOF” (priority 2018, published 2021).

Tests used:
[1] = system: clinical isolates (CPE, Carbapenemase Producing Enterobacteriaceae, and Non CPE strains); test: Selectivity of probes with clinical isolates in lysis buffer (visible light and UV light); type: cell-based; conditions: probe 10 μM
Procedure: The selectivity of some probes were evaluated with clinical isolates. The carbapenemases presence in the bacteria (CPE, i.e., Carbapenemase Producing Enterobacteriaceae) were verified by PCR (Polymerase Chain Reaction). 1 μL loop-full of each test bacterium from overnight-cultured LB agar plate were added to 100 μL PBS buffer with 0.5% CHAPS. The bacteria were vortexed to give a homogenious suspension and incubated for 15 min. To each of the bacteria-lysis buffer mixture (20 μL) were added quick test reagents (Probes (Final concentration=10 μM), CarbaNP solution A and CarbaNP solution B). CarbaNP solutions A and B were freshly prepared according to CLSI protocol, where solution A contains 10 mM zinc sulphate and phenol red buffer at pH=7.8±0.1 and solution B was a mixture of solution A with 3 mg/mL imipenem.

NDM-1 = target: T1, NDM-1 (Klebsiella pneumoniae, UniProt C7C422); type: biochemical; conditions: for Kcat / Km: Michaelis-Menten kinetics; for time until hydrolysis reaction complete (fluorescent signal plateaued): probe 2.0 μM; for fluorescence signal over time: probe 2.0 μM (MCW-002 1.1 μM, MCW-011 0.5 μM), PBS
T1 construct: His tag; made in house; host or cells: Escherichia coli
Procedure: (§1) Recombinant his-tagged beta-lactamases, including NDM-1, IMP-1, KPC-2, VIM-2 and OXA-48 were overexpressed in Escherichia coli. The enzymes were purified using HisTrap Ni-NTA columns. AmpC and TEM were purchased from commercial sources.
(§2) The fluorescence-based activity assays were performed in phosphate-buffer saline. The concentration of some of the compounds were determined by boiling the compounds in PBS solution until fluorescence signal was saturated. The amount of released fluorophore was quantified via fluorescence spectroscopy by comparing to a corresponding calibration curve.

OXA-48 = target: T2, OXA-48 (Klebsiella pneumoniae, UniProt Q6XEC0); type: biochemical; conditions: for fluorescence signal over time: probe 2.0 μM (MCW-011 0.5 μM), PBS
T2 construct: His tag; made in house; host or cells: Escherichia coli
Procedure: as §1, §2

IMP-1 = target: T3, IMP-1 (Serratia marcescens, UniProt P52699); type: biochemical; conditions: for 3S/k (detection limit of the probe towards the carbapenemase) / time until hydrolysis reaction complete (fluorescent signal plateaued) / fluorescence signal over time / Kcat / Km: IMP-1; for time until hydrolysis reaction complete (fluorescent signal plateaued): probe 2.0 μM; for fluorescence signal over time: probe 2.0 μM (MCW-002 1.1 μM, MCW-011 0.5 μM), PBS; for Kcat / Km: Michaelis-Menten kinetics
T3 construct: His tag; made in house; host or cells: Escherichia coli
Procedure: as §1, §2

VIM-2 = target: T4, VIM-2 (Escherichia coli, UniProt Q5U7L7); type: biochemical; conditions: for Kcat / Km: Michaelis-Menten kinetics; for fluorescence signal over time: probe 2.0 μM (MCW-011 0.5 μM), PBS
T4 construct: His tag; made in house; host or cells: Escherichia coli
Procedure: as §1, §2

KPC-2 = target: T5, KPC-2 (Klebsiella pneumoniae, UniProt Q9F663); type: biochemical; conditions: for Kcat / Km: Michaelis-Menten kinetics; for fluorescence signal over time: probe 2.0 μM (MCW-002 1.1 μM, MCW-011 0.5 μM), PBS
T5 construct: His tag; made in house; host or cells: Escherichia coli
Procedure: as §1, §2

TEM = target: T6, TEM (Escherichia coli, UniProt P62593); test: Activity of beta-lactamases towards probes (fluorescence-based activity assay), TEM; type: biochemical; conditions: probe 2.0 μM (MCW-002 1.1 μM, MCW-011 0.5 μM), PBS
T6 construct: purchased
Procedure: as §1, §2

AmpC = test: Activity of beta-lactamases towards probes (fluorescence-based activity assay), AmpC; type: biochemical; conditions: probe 2.0 μM (MCW-002 1.1 μM, MCW-011 0.5 μM), PBS
Procedure: as §1, §2

[2] = system: beta-lactamases, including NDM-1, IMP-1, VIM-2, KPC-2, OXA-48, AmpC, and TEM; test: Fluorescence-based activity assay, whole panel of tested beta-lactamases; type: biochemical; conditions: conclusion from fluorescence signals
Procedure: as §1, §2
(§3) Among the tested beta-lactamases, NDM-1, IMP-1, VIM-2, KPC-2 and OXA-48 are carbapenemases, whereas AmpC and TEM are not. Nitrocefin was used as a control to test the activity of the beta-lactamases because it can be hydrolyzed by a wide range of beta-lactamases.

[3] = system: beta-lactamases, including NDM-1, IMP-1, VIM-2, KPC-2, OXA-48, AmpC, and TEM; test: Hydrolysis of nitrocefin by beta-lactamases, absorbance at 485 nm; type: biochemical; conditions: nitrocefin 50 μM
Procedure: as §1
The enzymatic activity of these beta-lactamases in hydrolysing beta-lactam compounds was tested using nitrocefin as a probe. Nitrocefin (50 μM) dissolved in phosphate buffer (pH=7.4) was mixed with each purified beta-lactamase. Once hydrolyzed, nitrocefin underwent a rapid color change from yellow to red. The hydrolysis process of nitrocefin was monitored by measuring the absorbance at 485 nm with a Molecular Device SpectraMax® Paradigm® Multi-Mode Microplate Reader.
as §3

T5 sequence (Q9F663 25-293 limits assumed): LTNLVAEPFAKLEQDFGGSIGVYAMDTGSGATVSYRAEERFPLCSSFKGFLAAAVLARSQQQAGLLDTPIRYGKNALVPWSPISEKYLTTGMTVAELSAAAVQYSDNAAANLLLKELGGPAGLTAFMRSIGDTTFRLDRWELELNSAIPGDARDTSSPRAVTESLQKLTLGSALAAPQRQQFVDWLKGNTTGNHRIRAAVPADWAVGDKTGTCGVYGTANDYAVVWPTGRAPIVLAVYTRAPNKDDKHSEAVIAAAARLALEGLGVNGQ
T1 sequence (C7C422 29-270 limits assumed): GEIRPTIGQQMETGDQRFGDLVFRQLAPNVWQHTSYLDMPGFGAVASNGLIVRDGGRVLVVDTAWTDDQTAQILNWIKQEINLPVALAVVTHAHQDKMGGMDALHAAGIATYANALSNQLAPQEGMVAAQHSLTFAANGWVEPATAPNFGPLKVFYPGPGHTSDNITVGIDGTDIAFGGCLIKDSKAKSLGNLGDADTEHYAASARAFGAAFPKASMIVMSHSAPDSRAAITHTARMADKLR
T2 sequence (Q6XEC0 23-265 limits assumed): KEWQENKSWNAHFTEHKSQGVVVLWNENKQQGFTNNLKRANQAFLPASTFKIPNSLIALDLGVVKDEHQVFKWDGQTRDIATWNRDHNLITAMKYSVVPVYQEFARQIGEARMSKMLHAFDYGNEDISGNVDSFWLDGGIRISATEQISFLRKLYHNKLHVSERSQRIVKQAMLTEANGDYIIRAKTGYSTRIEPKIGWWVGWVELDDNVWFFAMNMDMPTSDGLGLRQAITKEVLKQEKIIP
T3 sequence (P52699 19-246 limits assumed): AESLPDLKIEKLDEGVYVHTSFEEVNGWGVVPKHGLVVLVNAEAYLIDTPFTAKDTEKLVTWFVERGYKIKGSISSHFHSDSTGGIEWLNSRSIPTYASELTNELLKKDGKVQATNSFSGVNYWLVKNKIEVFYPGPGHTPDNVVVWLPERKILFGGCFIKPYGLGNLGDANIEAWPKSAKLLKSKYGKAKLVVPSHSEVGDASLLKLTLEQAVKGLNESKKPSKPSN
T6 sequence (P62593 24-286 limits assumed): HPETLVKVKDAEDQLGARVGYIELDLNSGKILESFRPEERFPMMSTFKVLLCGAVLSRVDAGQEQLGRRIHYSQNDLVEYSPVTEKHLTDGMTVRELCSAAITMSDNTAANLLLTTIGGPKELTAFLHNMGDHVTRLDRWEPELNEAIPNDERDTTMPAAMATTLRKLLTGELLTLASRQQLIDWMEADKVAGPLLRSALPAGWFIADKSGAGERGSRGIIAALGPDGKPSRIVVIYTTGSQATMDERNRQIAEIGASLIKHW

| Structure (SMILES) | signal with panel of clinical isolates ([1]; incubated for 15 min) | signal with panel of clinical isolates ([1]; incubated for 120 min) | 3S/k (detection limit of the probe towards the carbapenemase) (NDM-1) | Kcat (NDM-1) | Km (NDM-1) | time until hydrolysis reaction complete (fluorescent signal plateaued) (NDM-1) | fluorescence signal over time (NDM-1) | 3S/k (detection limit of the probe towards the carbapenemase) (OXA-48) | fluorescence signal over time (OXA-48) | 3S/k (detection limit of the probe towards the carbapenemase) (IMP-1) | time until hydrolysis reaction complete (fluorescent signal plateaued) (IMP-1) | fluorescence signal over time (IMP-1) | Kcat (IMP-1) | Km (IMP-1) | 3S/k (detection limit of the probe towards the carbapenemase) (VIM-2) | relative rate of hydrolysis reaction (VIM-2) | Kcat (VIM-2) | Km (VIM-2) | fluorescence signal over time (VIM-2) | 3S/k (detection limit of the probe towards the carbapenemase) (KPC-2) | also measured |
| --- | --- | --- | --- | --- | --- | --- | --- | --- | --- | --- | --- | --- | --- | --- | --- | --- | --- | --- | --- | --- | --- |
| COc1cc(COc2ccc3nc4ccc(=O)cc-4oc3c2)ccc1OC/C=C/C1=C(C(=O)O)N2C(=O)[C@H]([C@@H](C)O)[C@H]2C1 [MCW-001, (5R,6S)-6-((R)-1-hydroxyethyl)-3-((E)-3-(2-methoxy-4-(((3-oxo-3H-phenoxazin-7-yl)oxy)methyl)phenoxy)prop-1-en-1-yl)-7-oxo-1-azabicyclo[3.2.0]hept-2-ene-2-carboxylic acid] | observable colorimetric and fluorescence signal in CPE strains but not the Non CPE strains | observable colorimetric and fluorescence signal in CPE strains but not the Non CPE strains | 0.327 pM | 29.8 ± 0.81 s⁻¹ | 1.66 ± 0.13 µM | ≤ 2 min | pronounced increase in the fluorescent signal | 30.3 pM | pronounced increase in the fluorescent signal | 0.333 pM | ≤ 2 min | pronounced increase in the fluorescent signal | 33.9 ± 0.71 s⁻¹ | 1.2 ± 0.08 µM | 3.28 pM | slower compared to the reactions with NDM-1 and IMP-1 | 1.96 ± 0.05 s⁻¹ | 1.18 ± 0.1 µM | pronounced increase in the fluorescent signal | 4.43 pM | Kcat (OXA-48; Michaelis-Menten kinetics): 2.83 ± 0.18 s⁻¹; Km (OXA-48; Michaelis-Menten kinetics): 0.66 ± 0.08 µM; time until hydrolysis reaction complete (fluorescent signal plateaued) (OXA-48; probe 2.0 μM): > 30 min; fluorescence turn-on signal upon beta-lactam hydrolysis (IMP-1; MCW-001 1 μM, IMP-1 0.5 μM): more than 60 fold; absorption change over time (IMP-1; MCW-001 10 μM, IMP-1 2 μM): decreased in absorbance maximum at 480 nm and increase in absorbance maximum at 571 nm; time until hydrolysis reaction complete (fluorescent signal plateaued) (VIM-2; probe 2.0 μM): about 25 min; relative rate of hydrolysis reaction (KPC-2): slower compared to the reactions with NDM-1 and IMP-1; Kcat (KPC-2): 2.17 ± 0.07 s⁻¹; Km (KPC-2): 0.93 ± 0.11 µM; time until hydrolysis reaction complete (fluorescent signal plateaued) (KPC-2; probe 2.0 μM): about 25 min; fluorescence signal over time (KPC-2): pronounced increase in the fluorescent signal; fluorescence signal over time (TEM): minimal changes in the fluorescent signal; fluorescence signal over time (AmpC): minimal changes in the fluorescent signal; specificity among the tested beta-lactamases [2]: specific for carbapenemases |
| COc1cc(COc2ccc3nc4ccc(=O)cc-4oc3c2)ccc1OC/C=C/C1=C(C(=O)O)N2C(=O)[C@H]([C@@H](C)O)[C@H]2[C@H]1C [MCW-007, (4S,5R,6S)-6-((R)-1-hydroxyethyl)-3-((E)-3-(2-methoxy-4-(((3-oxo-3H-phenoxazin-7-yl)oxy)methyl)phenoxy)prop-1-en-1-yl)-4-methyl-7-oxo-1-azabicyclo[3.2.0]hept-2-ene-2-carboxylic acid] | observable colorimetric and fluorescence signal in some CPE strains but not the Non CPE strains | observable colorimetric and fluorescence signal in CPE strains but not the Non CPE strains | 0.439 pM | 95.1 ± 4.32 s⁻¹ | 1.56 ± 0.17 µM | ≤ 5 min | pronounced increase in the fluorescent signal | 367 pM | did not provide significant fluorescence response | 0.379 pM | ≤ 5 min | pronounced increase in the fluorescent signal | 116 ± 2.81 s⁻¹ | 1.33 ± 0.08 µM | 5.22 pM | slower compared to the reaction with NDM-1 and IMP-1 | 6.87 ± 0.11 s⁻¹ | 0.92 ± 0.04 µM | pronounced increase in the fluorescent signal | 8.50 pM | relative rate of hydrolysis reaction (KPC-2): slower compared to the reaction with NDM-1 and IMP-1; Kcat (KPC-2): 8.04 ± 1.96 s⁻¹; Km (KPC-2): 0.77 ± 0.06 µM; fluorescence signal over time (KPC-2): pronounced increase in the fluorescent signal; fluorescence signal over time (TEM): minimal changes in the fluorescent signal; fluorescence signal over time (AmpC): minimal changes in the fluorescent signal; specificity among the tested beta-lactamases [2]: specific for some carbapenemases |
| O=C(Cc1cccs1)N[C@@H]1C(=O)N2C(C(=O)O)=C(/C=C/c3ccc([N+](=O)[O-])cc3[N+](=O)[O-])CS[C@H]12 [nitrocefin] | – | – | – | – | – | – | – | – | – | – | – | – | – | – | – | – | – | – | – | – | hydrolysis of nitrocefin ([3]; all of the tested beta-lactamases): can hydrolyze nitrocefin; time until hydrolysis reactions complete (absorption at 485 nm plateaued) ([3]; except NDM-1): ≤ 30 min |
